We go through 1 compound from patent US20140056966A1, “CONJUGATE ANGIOSTATION OR ITS FRAGMENT, THE METHOD OF PRODUCING THE CONJUGATE AND USE THEREOF” (PROTGEN LTD., priority 2007, published 2014).

Data set [1] is described as follows: body weight of animals in the NCI-H226 xenograft model. The conditions noted are these: 20 mg/kg; Day 11 and Day 25; ANOVA p<0.05.
Procedure: (§1) Female Balb/c nu/nu mice aged 6-8 weeks of about 18-20 g weight (institute of laboratory animal sciences, CAMS) were used in this experiment. Mice were subcutaneously inoculated on the right side with NCI-H226 cells (human pancreatic cancer cell line, derived from ATCC, ATCC number CRL-5826). When the tumor volume reached about 80-125 mm^3, the animals were divide into 3 groups randomly (6 per group). […] The body weight and tumor volume of the animals were measured twice a week. Sacrifice the animals on day 28, collect the tumors and take photographs.
The test system of data set [2] is NCI-H226 NSCLC xenograft. Nature of the data set: NCI-H226 NSCLC xenograft model, tumor burden. The settings on record: for T/C ratio: PEG-K1-3 4.5 mg/kg i.v., Taxol 20 mg/kg i.v. In kind it is in vivo, Balb/c nu/nu mice.
Procedure: as §1

`CC(=O)O[C@H]1C(=O)[C@@]2(C)[C@H]([C@H](OC(=O)c3ccccc3)[C@]3(O)C[C@H](OC(=O)[C@H](O)[C@@H](NC(=O)c4ccccc4)c4ccccc4)C(C)=C1C3(C)C)[C@]1(OC(C)=O)CO[C@@H]1C[C@@H]2O` [Taxol, reference compound]: the “average body weight compared with the control group” value in data set [1] is recorded as “significantly lower”. Further, the “tumor burden compared with the control group” value in data set [2] (20 mg/kg i.v., Day 11, Day 15, Day 18) is on record as “significantly difference”. For the same compound, the T/C ratio was found to be 69% in data set [2] (Day 4), 39% in data set [2] (Day 11), 28% in data set [2] (Day 18) and 18% in data set [2] (Day 25). In data set [2] (tumor burden 21 days after treatment, vs control group, PEG-K1-3 4.5 mg/kg, Taxol 20 mg/kg), this compound gave a tumor inhibition rate of 84.43%.
